How the values were obtained:
Assay in all cases: relative viability (nuclei count vs DMSO), 5 days (fraction); higher = more cells survive
Selumetinib + Olaparib = compound: Cn1cnc2c(F)c(Nc3ccc(Br)cc3Cl)c(C(=O)NOCCO)cc21 [Selumetinib] + O=C(c1cc(Cc2n[nH]c(=O)c3ccccc23)ccc1F)N1CCN(C(=O)C2CC2)CC1 [Olaparib] (partner 8 µM)
Outline: (§1)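 The day after seeding in 1536-well plates, lung cancer cell lines were treated by pin tool with a single drug, or with a fixed anchor-drug dose together with five library-drug doses (not always all listed) in √10 steps. After 5 days, a combined fix-and-stain solution (final 0.05% Triton X-100, 1% formaldehyde, 1 ug/ml Hoechst) was added. Nuclei counted on 4× images gave relative viability as treated counts over vehicle counts, reported as the median of duplicate plates.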

Selumetinib + Pictilisib = compound: Cn1cnc2c(F)c(Nc3ccc(Br)cc3Cl)c(C(=O)NOCCO)cc21 [Selumetinib] + CS(=O)(=O)N1CCN(Cc2cc3nc(-c4cccc5[nH]ncc45)nc(N4CCOCC4)c3s2)CC1 [Pictilisib] (partner 1 µM)
Outline: as §1

Venetoclax + Trametinib = compound: CC1(C)CCC(CN2CCN(c3ccc(C(=O)NS(=O)(=O)c4ccc(NCC5CCOCC5)c([N+](=O)[O-])c4)c(Oc4cnc5[nH]ccc5c4)c3)CC2)=C(c2ccc(Cl)cc2)C1 [Venetoclax] + CC(=O)Nc1cccc(-n2c(=O)n(C3CC3)c(=O)c3c(Nc4ccc(I)cc4F)n(C)c(=O)c(C)c32)c1 [Trametinib] (partner 0.02 µM)
Outline: as §1

Venetoclax + Luminespib = compound: CC1(C)CCC(CN2CCN(c3ccc(C(=O)NS(=O)(=O)c4ccc(NCC5CCOCC5)c([N+](=O)[O-])c4)c(Oc4cnc5[nH]ccc5c4)c3)CC2)=C(c2ccc(Cl)cc2)C1 [Venetoclax] + CCNC(=O)c1noc(-c2cc(C(C)C)c(O)cc2O)c1-c1ccc(CN2CCOCC2)cc1 [Luminespib] (partner 0.01 µM)
Outline: as §1

| Cell Line | relative viability (Selumetinib + Olaparib; first compound 0.02 µM) | relative viability (Selumetinib + Olaparib; first compound 0.06325 µM) | relative viability (Selumetinib + Olaparib; first compound 0.2 µM) | relative viability (Selumetinib + Olaparib; first compound 0.6325 µM) | relative viability (Selumetinib + Pictilisib; first compound 0.02 µM) | relative viability (Selumetinib + Pictilisib; first compound 0.06325 µM) | relative viability (Selumetinib + Pictilisib; first compound 0.2 µM) | relative viability (Selumetinib + Pictilisib; first compound 0.6325 µM) | relative viability (Venetoclax + Trametinib; first compound 0.01 µM) | relative viability (Venetoclax + Trametinib; first compound 0.03162 µM) | relative viability (Venetoclax + Trametinib; first compound 0.1 µM) | relative viability (Venetoclax + Trametinib; first compound 0.3162 µM) | relative viability (Venetoclax + Trametinib; first compound 1 µM) | relative viability (Venetoclax + Luminespib; first compound 0.01 µM) | relative viability (Venetoclax + Luminespib; first compound 0.03162 µM) | relative viability (Venetoclax + Luminespib; first compound 0.1 µM) | relative viability (Venetoclax + Luminespib; first compound 0.3162 µM) | relative viability (Venetoclax + Luminespib; first compound 1 µM) |
| --- | --- | --- | --- | --- | --- | --- | --- | --- | --- | --- | --- | --- | --- | --- | --- | --- | --- | --- |
| NCI-H441 | 0.613 | 0.609 | 0.517 | 0.444 | 0.472 | 0.363 | 0.306 | 0.292 | 0.49 | 0.494 | 0.506 | 0.439 | 0.5 | 0.337 | 0.372 | 0.434 | 0.299 | 0.427 |
| NCI-H460 | 0.433 | 0.384 | 0.342 | 0.225 | 0.272 | 0.249 | 0.207 | 0.209 | 0.171 | 0.229 | 0.131 | 0.153 | 0.131 | 0.0354 | 0.0317 | 0.0311 | 0.0401 | 0.0316 |
| NCI-H520 | 0.331 | 0.349 | 0.363 | 0.3 | 0.293 | 0.24 | 0.31 | 0.292 | 0.58 | 0.823 | – | 0.613 | 0.594 | 0.258 | 0.209 | 0.221 | 0.209 | 0.187 |
| NCI-H596 | 0.596 | 0.663 | 0.572 | 0.599 | 0.372 | 0.333 | 0.31 | 0.296 | 0.731 | 0.746 | 0.851 | 0.951 | 0.755 | 1.03 | 0.947 | 1.03 | 0.994 | 1.06 |
| NCI-H647 | 0.608 | 0.605 | 0.479 | 0.643 | 0.422 | 0.384 | 0.173 | 0.318 | 0.463 | 0.428 | 0.423 | 0.399 | 0.433 | 0.167 | 0.206 | 0.124 | 0.123 | 0.151 |
| NCI-H650 | 0.478 | 0.514 | 0.47 | 0.526 | 1 | 0.912 | 0.887 | 0.993 | 0.875 | 0.995 | 0.892 | 0.892 | 0.963 | 0.805 | 0.837 | 0.751 | 0.954 | 0.735 |
| NCI-H661 | 0.808 | 0.722 | 0.696 | 0.727 | 0.496 | 0.39 | 0.347 | 0.577 | 0.528 | 0.606 | 0.538 | 0.525 | 0.532 | 0.924 | 0.956 | 0.894 | 0.822 | 0.871 |
| NCI-H727 | 0.665 | 0.558 | 0.383 | 0.431 | 0.309 | 0.214 | 0.155 | 0.234 | 0.363 | 0.392 | 0.406 | 0.412 | 0.386 | 0.465 | 0.439 | 0.209 | 0.303 | 0.357 |
| NCI-H838 | 0.727 | 0.67 | 0.652 | 0.662 | 0.458 | 0.314 | 0.321 | 0.339 | 0.559 | 0.522 | 0.524 | 0.491 | 0.488 | 0.408 | 0.255 | 0.24 | 0.378 | 0.275 |
| NCI-H1355 | 0.696 | 0.614 | 0.616 | 0.534 | 0.369 | 0.409 | 0.315 | 0.296 | 0.455 | 0.46 | 0.435 | 0.432 | 0.44 | 0.748 | 0.759 | 0.667 | 0.782 | 0.778 |
| NCI-H1395 | 0.452 | 0.488 | 0.482 | 0.46 | 0.598 | 0.577 | 0.569 | 0.639 | 1.05 | 0.944 | 1.02 | 1.06 | 1.05 | 0.661 | 0.805 | 0.517 | 0.793 | 0.658 |
| NCI-H1437 | 0.665 | 0.58 | 0.549 | 0.47 | 0.237 | 0.178 | 0.157 | 0.149 | 0.5 | 0.52 | 0.529 | 0.463 | 0.435 | 1.07 | 1.19 | 1.13 | 1.15 | 1.07 |
| NCI-H1650 | 0.669 | 0.654 | 0.712 | 0.646 | 0.53 | 0.44 | 0.524 | 0.525 | 0.539 | 0.581 | 0.609 | 0.485 | 0.529 | 0.196 | 0.202 | 0.2 | 0.189 | 0.207 |
| NCI-H1651 | 0.189 | 0.201 | 0.182 | 0.171 | 0.536 | 0.51 | 0.511 | 0.522 | 0.88 | 0.89 | 0.804 | 0.838 | 0.926 | 0.872 | 0.882 | 0.817 | 0.8 | 0.79 |
| NCI-H1666 | 0.722 | 0.711 | 0.715 | 0.686 | 0.346 | 0.22 | 0.264 | 0.239 | 0.764 | 0.809 | 0.73 | 0.824 | 0.858 | 0.894 | 1.08 | 0.953 | 0.973 | 0.996 |
| NCI-H1734 | 0.604 | 0.391 | 0.557 | 0.56 | 0.486 | 0.363 | 0.438 | 0.438 | 0.588 | 0.739 | 0.635 | 0.781 | 0.614 | 0.184 | 0.188 | 0.244 | 0.204 | 0.224 |
| NCI-H1755 | 0.848 | 0.787 | 0.807 | 0.847 | 0.446 | 0.426 | 0.342 | 0.365 | 0.713 | 0.765 | 0.768 | 0.715 | 0.736 | 0.534 | 0.452 | 0.556 | 0.348 | 0.55 |
